Laboratory results published in paper PMC7710018, “Restoration of motor learning in a mouse model of Rett syndrome following long-term treatment with a novel small-molecule activator of TrkB” (Disease Models & Mechanisms, 2020).

Assays:
[1] = Body weight / tolerability on chronic intermittent dosing; assay type: in vivo; conditions: 8 weeks
Source text: In light of evidence that deficits in BDNF expression and TrkB signaling contribute to neurological dysfunction in mouse models of RTT ([Katz, 2014]), we next examined whether or not chronic treatment of Mecp2 mutant mice with PTX-BD4-3 would ameliorate disease phenotypes. For these studies, we used heterozygous (Het) female Mecp2 mutants, which, unlike male null mice, model the somatic mosaicism for normal and mutant MeCP2 that characterizes the human disease ([Katz et al., 2012]). Animals were treated once every 3 days (5 mg/kg, i.p.), beginning at 16 weeks of age, and neurological phenotypes were assessed at various time points up to 8 weeks of dosing. All tests were performed 24 h after the last treatment. Phenotypic assessments included whole-body plethysmography to quantify apneic breathing, a core feature of respiratory dysfunction in RTT, as well as a motor test battery.
Figure S2. Repeated dosing with PTX-BD4-3 (5 mg/kg, q72 hrs) had no
effect on body weight in either Wt or Het mice.
Initial Week 2 Week 4 Week 6 Week 8
Body weight (g) Wt Saline Wt BD4‐3
Disease Models & Mechanisms: doi:10.1242/dmm.044685: Supplementary information
Disease Models & Mechanisms • Supplementary information […]

[2] = tested on: 3T3 parent line, which does not express Trk receptors; assay: NIH-3T3 cell survival; assay type: cell-based, mouse; conditions: serum-free medium
[3] = tested on: 3T3-TrkC cells; assay: NIH-3T3 cell survival (ViaLight); assay type: cell-based, mouse; conditions: serum-free medium, 72-96 h, PTX-BD4-3 1000 nM
Procedure: (§1) Fig. 2. PTX-BD4-3 promotes cell survival preferentially through TrkB. (A-D) Neurotrophin receptor-expressing NIH-3T3 cells were incubated in culture medium (CM) alone or in medium plus either the indicated neurotrophins (BDNF, NGF, NT-3) or PTX-BD4-3 or its parent compound LM22A-4 for 72-96 h, after which survival was measured using the ViaLight assay. […] Scale bar: 10 μm. (B) Survival dose-response curves for PTX-BD4-3 and LM22A-4 in 3T3-TrkB cells. ^§P≤0.001 compared to CM alone. (C) Representative images of 3T3-TrkA, 3T3-TrkC and 3T3-p75 cells grown in the presence of CM alone, CM+neurotrophin or CM+PTX-BD4-3. Scale bar: 10 μm. NGF, NT-3 and BDNF served as positive controls for 3T3-TrkA, 3T3-TrkC and 3T3-p75 cells, respectively. (D) PTX-BD4-3 (1000 nM) had no effect on survival of 3T3-TrkA, 3T3-TrkC or 3T3-p75 cells compared to medium alone. *P≤0.05, ***P≤0.001 compared to CM alone. For each determination in B and D, n=10-32 wells derived from four to five independent experiments. Statistical significance was determined by one-way ANOVA with Dunnett's post hoc multiple comparison test. (E,F) […] protein was extracted from human cementoblast-like cell (HCEM) cultures treated with either culture medium alone, BDNF, LM22A-4 or PTX-BD4-3, immunoprecipitated with anti-TrkB antibody and then probed sequentially on western blots with anti-Shc and anti-TrkB antibody. The ratio of Shc to TrkB in treated cultures was normalized and compared to control (CM alone) using Kruskal-Wallis ANOVA followed by Dunn's multiple comparisons test (*P≤0.05, ^§P≤0.001). n=13 independent experiments, and each protein sample was run on duplicate western blots and the normalized values averaged. RLUs, relative light units.
(§2) Mouse NIH-3T3 cells expressing TrkA (NIH-3T3-TrkA) were provided by Dr William Mobley (University of California at San Diego, San Diego, CA, USA), and NIH-3T3 cells expressing TrkB (NIH-3T3-TrkB) or TrkC (NIH-3T3-TrkC) were provided by Dr David Kaplan (University of Toronto, Toronto, ON, Canada). Cells were propagated in Dulbecco's modified Eagle medium (DMEM) supplemented with 10% fetal bovine serum (FBS; Invitrogen) and 200-400 µg/ml Geneticin. Cells were seeded into 24-well plates (30,000 cells/well) and cultured in medium consisting of 50% PBS and 50% DMEM without supplements. Following exposure to BDNF (20 ng/ml, 0.7 nM) or 10-1000 nM LM22A-4 or PTX-BD4-3 for 72-96 h, cells were suspended in 50 µl lysis buffer, transferred to white, opaque 96-well culture plates and survival was measured using the ViaLight Assay (Lonza Group, Rockland, ME, USA).

[4] = tested on: 3T3-p75 cells; assay: NIH-3T3 cell survival (ViaLight); assay type: cell-based, mouse; conditions: serum-free medium, 72-96 h, PTX-BD4-3 1000 nM
Procedure: as §1, §2

[5] = tested on: 3T3-TrkA cells; assay: NIH-3T3 cell survival (ViaLight); assay type: cell-based, mouse; conditions: serum-free medium, 72-96 h, PTX-BD4-3 1000 nM
Procedure: as §1, §2

[6] = tested on: heterozygous (Het) female Mecp2 mutant mice; assay: Rotarod; assay type: in vivo, mouse; conditions: 5 mg/kg q72 h
Procedure: Small-molecule compounds were diluted in saline and delivered by i.p. injection. To define the acute effects of single drug treatments, behavioral testing was initiated 1 h after dosing. Durable effects of single drug treatments were evaluated 24 h after dosing. […]
A Rotarod apparatus (Columbus Instruments) was used test to assess sensorimotor coordination. Animals were placed on a rotating rod at a constant speed of 4 rpm for 1 min of acclimation. […] Latency of the animal to fall was recorded. The test was repeated three times, with each trial separated by 15 min, to assess potential learning components of any observed phenotypes.

For `COCCN(C)C(=O)c1cc(C(=O)N(C)CCOC)cc(C(=O)N(C)CCOC)c1` [PTX-BD4-3, benzene-1,3,5-tricarboxylic acid tris-[(2-methoxy-ethyl)-methyl-amide]], the “tolerability of chronic intermittent dosing” value ([1]; 5 mg/kg i.p. q72 h) was “well tolerated”, the body weight ([1]; Het mice, 5 mg/kg q72 h, vs saline-treated Het littermates) was “unchanged” and the “survival of the 3T3 parent line” value [2] was “did not support survival”. The “survival of 3T3-TrkC cells” value [3] was “no effect”, the “survival of 3T3-p75 cells” value [4] was “no effect” and the “survival of 3T3-TrkA cells” value [5] was “no effect”. The “Rotarod performance (latency to fall)” value ([6]; 2 weeks, repeated testing, 24 h after last dose) was “as impaired as their saline-treated Het littermates”, the “Rotarod performance (latency to fall)” value ([6]; 8 weeks, repeated testing at 2, 4, 8 weeks, 24 h after last dose) was “comparable to that of saline-treated Wt controls” and the “Rotarod performance (latency to fall)” value ([6]; 8 weeks, tested only at the end of treatment, vs saline-treated Het) was “no improvement”.
